{"source": "patent US10159670B2", "about": "“Methods of diagnosing and treating motor neuron diseases and other cellular stress-related diseases” (priority 2012, dated 2018)", "tested_on": "Ago2 and Dicer protein interactions", "test": "Targeted mass spectrometry of Ago2-Flag / Dicer-Flag interactions in HEK293 cells under stress", "format": "cell-based", "conditions": "0.5 mM, 60 min", "description": "(FIG. 9A) The ratio of pre-miRNA to mature miRNA levels in NSC-34 cells, transfected with plasmids as indicated and in cells treated for 72 hrs with carrier alone (water, black) or with cycloheximide (CHX, 0.02 μg/ml, gray). Data normalized to control plasmid transfection. Pre-miRNAs further normalized to Gapdh (for FUS R495X, TDP-43 A315T) or to beta-actin (SOD1 G93A) and miRNA levels normalized to Snord68. Average of three independent experiments except for pre-miRNAs in the study of FUS R495X (n=2). Targeted quantitative mass spectrometry analysis of changes in the binding of Ago2 or Dicer to a set of proteins interactors under stress (FIGS. 9B-E). Immunoprecipitated Ago2-Flag (FIG. 9B) or Dicer-Flag (FIG. 9C) from HEK 293 cells, cultured under basal conditions or treated with sodium arsenite (0.5 mM, 60 min) was subjected to targeted mass-spectrometry analysis. Data is averaged from two or three different peptide standards per protein and normalized to the levels of co-immunoprecipiated peptides from untreated cells. Statistically significant result in a student t-test, between arsenite and control treatment is denoted (*p<0.05). Targeted mass spectrometry of (FIG. 9D) Dicer cofactors or (FIG. 9E) SG components, immunoprecipitated with AGO-Flag in FUS R495X-expressing HEK 293 that were further treated for 72 hrs with carrier alone or Cycloheximide (0.02 μg/ml). (FIG. 9F) The ratio of pre-miRNA to mature miRNA levels in mouse embryonic fibroblasts, pretreated for 5 hrs with HSP90 inhibitors (17-AAG, 1 μM or Geldanamycin, 1 μM) and then incubated for 36 more hours with Thapsigargin (5 nM) in combinations with the respective HSP90 inhibitor. Bars represent the average of three independent experiments. miRNA normalized to the expression levels of Snord70, and pre-miRNA normalized to Gapdh.\nFor mass-spectrometry, HEK293 that either stably express Ago2-FLAG (n=3 for each group) or Dicer-Flag transfected cells (48 hrs post-transfection, n=4 for each group) were untreated or stressed with 0.5 mM sodium arsenite for 60 minutes before harvest. IP was performed with the FLAG-IPT1 Kit (Sigma-Aldrich). Negative controls were HEK293 cells not containing a FLAG-construct. Samples containing the eluted proteins and the FLAG peptide were filtered using 3 kDa molecular weight cut-off spin columns (Amicon, Millipore). Buffer was exchanged to 50 mM ammonium bicarbonate (Sigma-Aldrich) in the same step. Proteins were reduced by addition of dithiothreitol (Sigma-Aldrich) to a final concentration of 5 mM and incubation for 30 minutes at 60° C., and alkylated with 10 mM iodoacetamide (Sigma-Aldrich) in the dark for 30 minutes at 21° C. The proteins were then digested using trypsin (Promega; Madison, Wis., USA) at a ratio of 1:50 (w/w trypsin/protein) for 16 hrs at 37° C. […]"}
{"smiles": "O=[As]O", "note": "[sodium arsenite]", "values": [{"measurement": "Ago2 and/or Dicer protein interactions with SG components eiF2S1, eIF3, eIF5a and with PCBP1, PCBP2", "result": "increased Ago2 and/or Dicer protein interactions with SG components"}, {"measurement": "increase of Ago2 phosphorylation on serine-387", "result": "more than 10 fold"}, {"measurement": "interaction of HSP90 and co-chaperone p23 with Dicer", "result": "increased interaction with Dicer under stress"}, {"measurement": "interactions of Ago2 with Dicer", "setting": "relative to basal conditions", "result": "enhanced interactions of Ago2 with Dicer"}]}
